Experimental data: ChEMBL document CHEMBL1145498, “A systematic interaction map of validated kinase inhibitors with Ser/Thr kinases” (Proc Natl Acad Sci U S A, 2007)

These compounds were tested against Glycogen synthase kinase-3 beta (Homo sapiens, UniProt P49841).
Chain of Glycogen synthase kinase-3 beta (P49841 whole entry, looked up): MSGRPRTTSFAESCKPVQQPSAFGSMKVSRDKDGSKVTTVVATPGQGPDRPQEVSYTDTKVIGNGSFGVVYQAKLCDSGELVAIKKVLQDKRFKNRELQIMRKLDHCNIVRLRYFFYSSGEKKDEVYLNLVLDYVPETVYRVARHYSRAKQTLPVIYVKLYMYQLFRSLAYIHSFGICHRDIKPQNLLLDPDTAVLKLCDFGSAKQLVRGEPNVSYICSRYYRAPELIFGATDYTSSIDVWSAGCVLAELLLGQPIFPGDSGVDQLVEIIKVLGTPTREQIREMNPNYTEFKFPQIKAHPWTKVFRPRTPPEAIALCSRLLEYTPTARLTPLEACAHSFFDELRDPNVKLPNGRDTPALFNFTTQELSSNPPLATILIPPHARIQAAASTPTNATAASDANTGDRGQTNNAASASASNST

Structure (SMILES)	ΔTm
N#CC(C#N)=Cc1ccc(O)c(O)c1 [TYRPHOSTIN 23]	0.8 °C
COc1ccc(CNc2nc(N(CCO)CCO)nc3c2ncn3C(C)C)cc1	0.8 °C
O=S(=O)(c1cccc2c(Cl)cccc12)N1CCCNCC1	0.2 °C
CN(C)S(=O)(=O)c1ccc2c(c1)/C(=C/c1cc3c([nH]1)CCCC3)C(=O)N2	-0.3 °C

Each compound was assayed against Serine/threonine-protein kinase PAK 5 (Homo sapiens) (UniProt Q9P286).
Chain of Serine/threonine-protein kinase PAK 5 (Homo sapiens) (Q9P286 whole entry, looked up): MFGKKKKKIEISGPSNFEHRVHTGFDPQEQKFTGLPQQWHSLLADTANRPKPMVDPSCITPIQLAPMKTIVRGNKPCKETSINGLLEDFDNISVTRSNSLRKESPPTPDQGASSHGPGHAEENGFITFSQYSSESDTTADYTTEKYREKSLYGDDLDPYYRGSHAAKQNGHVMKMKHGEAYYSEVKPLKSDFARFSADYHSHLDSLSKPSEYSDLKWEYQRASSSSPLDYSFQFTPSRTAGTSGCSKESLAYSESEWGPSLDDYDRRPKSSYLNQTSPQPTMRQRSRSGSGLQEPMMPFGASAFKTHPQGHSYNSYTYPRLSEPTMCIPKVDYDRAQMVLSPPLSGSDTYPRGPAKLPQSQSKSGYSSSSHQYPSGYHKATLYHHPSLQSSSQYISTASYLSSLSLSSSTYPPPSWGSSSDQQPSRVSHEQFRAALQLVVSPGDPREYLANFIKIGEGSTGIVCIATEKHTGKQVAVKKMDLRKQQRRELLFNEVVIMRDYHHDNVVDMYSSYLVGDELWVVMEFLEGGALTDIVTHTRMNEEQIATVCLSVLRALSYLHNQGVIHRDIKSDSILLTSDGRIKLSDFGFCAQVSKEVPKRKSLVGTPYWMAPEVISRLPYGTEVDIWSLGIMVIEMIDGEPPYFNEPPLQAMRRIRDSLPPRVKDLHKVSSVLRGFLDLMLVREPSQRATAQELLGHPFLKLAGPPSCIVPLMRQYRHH

Structure (SMILES)	ΔTm
N#CC(C#N)=Cc1ccc(O)c(O)c1 [TYRPHOSTIN 23]	0.5 °C
COc1ccc(CNc2nc(N(CCO)CCO)nc3c2ncn3C(C)C)cc1	1.1 °C
O=S(=O)(c1cccc2c(Cl)cccc12)N1CCCNCC1	0.1 °C
CN(C)S(=O)(=O)c1ccc2c(c1)/C(=C/c1cc3c([nH]1)CCCC3)C(=O)N2	0.4 °C

Each compound was assayed against Ribosomal protein S6 kinase alpha-3 (Homo sapiens) (UniProt P51812).
Chain of Ribosomal protein S6 kinase alpha-3 (Homo sapiens) (P51812 whole entry): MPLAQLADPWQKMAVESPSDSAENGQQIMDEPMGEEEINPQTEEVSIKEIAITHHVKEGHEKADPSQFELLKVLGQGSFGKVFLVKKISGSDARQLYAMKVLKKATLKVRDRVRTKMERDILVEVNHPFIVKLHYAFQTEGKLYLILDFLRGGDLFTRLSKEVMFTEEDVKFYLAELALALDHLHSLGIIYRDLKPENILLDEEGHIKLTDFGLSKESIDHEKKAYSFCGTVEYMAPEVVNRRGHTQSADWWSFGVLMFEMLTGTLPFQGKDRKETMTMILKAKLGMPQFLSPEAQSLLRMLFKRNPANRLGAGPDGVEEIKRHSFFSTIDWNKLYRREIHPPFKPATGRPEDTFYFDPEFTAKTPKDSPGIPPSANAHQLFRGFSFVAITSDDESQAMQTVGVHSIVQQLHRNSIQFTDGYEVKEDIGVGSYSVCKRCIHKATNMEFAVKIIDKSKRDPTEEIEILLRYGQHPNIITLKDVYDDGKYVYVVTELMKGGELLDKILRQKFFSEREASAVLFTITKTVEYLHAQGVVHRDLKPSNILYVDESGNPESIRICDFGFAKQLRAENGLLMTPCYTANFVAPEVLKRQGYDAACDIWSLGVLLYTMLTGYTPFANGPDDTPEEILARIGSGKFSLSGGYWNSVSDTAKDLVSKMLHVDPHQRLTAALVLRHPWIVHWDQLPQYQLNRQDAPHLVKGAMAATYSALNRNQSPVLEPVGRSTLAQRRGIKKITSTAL

Structure (SMILES)	ΔTm
N#CC(C#N)=Cc1ccc(O)c(O)c1 [TYRPHOSTIN 23]	2.7 °C
COc1ccc(CNc2nc(N(CCO)CCO)nc3c2ncn3C(C)C)cc1	1.7 °C
O=S(=O)(c1cccc2c(Cl)cccc12)N1CCCNCC1	-0.2 °C
CN(C)S(=O)(=O)c1ccc2c(c1)/C(=C/c1cc3c([nH]1)CCCC3)C(=O)N2	-0.1 °C

Each compound was assayed against Dual specificity protein kinase CLK1 (Homo sapiens) (UniProt P49759).

Structure (SMILES)	ΔTm
N#CC(C#N)=Cc1ccc(O)c(O)c1 [TYRPHOSTIN 23]	0.7 °C
COc1ccc(CNc2nc(N(CCO)CCO)nc3c2ncn3C(C)C)cc1	2.4 °C
O=S(=O)(c1cccc2c(Cl)cccc12)N1CCCNCC1	2 °C
CN(C)S(=O)(=O)c1ccc2c(c1)/C(=C/c1cc3c([nH]1)CCCC3)C(=O)N2	4.3 °C

What follows are compounds tested against Calcium/calmodulin-dependent protein kinase type 1D (Homo sapiens) (UniProt Q8IU85).
Chain of Calcium/calmodulin-dependent protein kinase type 1D (Homo sapiens) (Q8IU85 whole entry, looked up): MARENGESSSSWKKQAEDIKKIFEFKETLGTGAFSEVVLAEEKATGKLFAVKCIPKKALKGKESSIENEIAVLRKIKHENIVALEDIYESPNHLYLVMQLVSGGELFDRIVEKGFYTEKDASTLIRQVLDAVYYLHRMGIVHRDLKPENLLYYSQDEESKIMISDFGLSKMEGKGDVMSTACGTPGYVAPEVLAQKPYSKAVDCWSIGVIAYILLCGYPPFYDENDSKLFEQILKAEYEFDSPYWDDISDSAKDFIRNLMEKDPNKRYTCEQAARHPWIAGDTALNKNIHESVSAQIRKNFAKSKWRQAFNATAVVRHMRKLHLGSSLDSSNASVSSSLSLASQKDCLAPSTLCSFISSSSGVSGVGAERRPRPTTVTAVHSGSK

Structure (SMILES)	ΔTm
N#CC(C#N)=Cc1ccc(O)c(O)c1 [TYRPHOSTIN 23]	0.2 °C
COc1ccc(CNc2nc(N(CCO)CCO)nc3c2ncn3C(C)C)cc1	0.3 °C
O=S(=O)(c1cccc2c(Cl)cccc12)N1CCCNCC1	0 °C
CN(C)S(=O)(=O)c1ccc2c(c1)/C(=C/c1cc3c([nH]1)CCCC3)C(=O)N2	1.4 °C

What follows are compounds tested against Mitogen-activated protein kinase 11 (Homo sapiens, UniProt Q15759).

Structure (SMILES)	ΔTm
N#CC(C#N)=Cc1ccc(O)c(O)c1 [TYRPHOSTIN 23]	0.3 °C
COc1ccc(CNc2nc(N(CCO)CCO)nc3c2ncn3C(C)C)cc1	1.2 °C
O=S(=O)(c1cccc2c(Cl)cccc12)N1CCCNCC1	-0.3 °C
CN(C)S(=O)(=O)c1ccc2c(c1)/C(=C/c1cc3c([nH]1)CCCC3)C(=O)N2	1.1 °C

The compounds below were run against Serine/threonine-protein kinase 25 (Homo sapiens) (UniProt O00506).
Chain of Serine/threonine-protein kinase 25 (Homo sapiens) (O00506 whole entry, looked up): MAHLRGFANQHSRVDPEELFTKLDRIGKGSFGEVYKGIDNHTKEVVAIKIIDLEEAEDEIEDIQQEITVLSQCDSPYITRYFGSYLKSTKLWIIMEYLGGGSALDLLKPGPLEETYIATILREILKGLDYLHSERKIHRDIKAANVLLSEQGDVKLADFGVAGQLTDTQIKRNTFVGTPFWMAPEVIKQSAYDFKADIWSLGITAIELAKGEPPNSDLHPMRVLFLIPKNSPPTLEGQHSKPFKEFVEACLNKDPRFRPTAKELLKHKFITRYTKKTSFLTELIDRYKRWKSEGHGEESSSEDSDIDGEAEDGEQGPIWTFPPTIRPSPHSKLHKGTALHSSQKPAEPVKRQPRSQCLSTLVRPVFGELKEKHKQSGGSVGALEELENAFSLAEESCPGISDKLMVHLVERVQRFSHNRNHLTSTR

Structure (SMILES)	ΔTm
N#CC(C#N)=Cc1ccc(O)c(O)c1 [TYRPHOSTIN 23]	-0.2 °C
COc1ccc(CNc2nc(N(CCO)CCO)nc3c2ncn3C(C)C)cc1	1.5 °C
O=S(=O)(c1cccc2c(Cl)cccc12)N1CCCNCC1	0.2 °C
CN(C)S(=O)(=O)c1ccc2c(c1)/C(=C/c1cc3c([nH]1)CCCC3)C(=O)N2	5.3 °C

What follows are compounds tested against Cyclin-dependent kinase-like 1 (Homo sapiens) (UniProt Q00532).
Chain of Cyclin-dependent kinase-like 1 (Homo sapiens) (Q00532 whole entry): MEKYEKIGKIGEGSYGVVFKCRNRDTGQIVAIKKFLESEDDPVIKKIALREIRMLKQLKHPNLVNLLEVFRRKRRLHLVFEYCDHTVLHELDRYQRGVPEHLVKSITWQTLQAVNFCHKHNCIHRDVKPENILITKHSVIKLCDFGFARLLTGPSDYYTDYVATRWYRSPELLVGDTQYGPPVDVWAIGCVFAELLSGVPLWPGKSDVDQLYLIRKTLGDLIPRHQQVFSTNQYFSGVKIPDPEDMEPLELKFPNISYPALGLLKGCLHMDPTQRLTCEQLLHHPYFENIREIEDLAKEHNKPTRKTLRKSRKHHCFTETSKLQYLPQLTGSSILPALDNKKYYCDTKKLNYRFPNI

Structure (SMILES)	ΔTm
N#CC(C#N)=Cc1ccc(O)c(O)c1 [TYRPHOSTIN 23]	-0.1 °C
COc1ccc(CNc2nc(N(CCO)CCO)nc3c2ncn3C(C)C)cc1	0.3 °C
O=S(=O)(c1cccc2c(Cl)cccc12)N1CCCNCC1	0.3 °C
CN(C)S(=O)(=O)c1ccc2c(c1)/C(=C/c1cc3c([nH]1)CCCC3)C(=O)N2	0 °C

What follows are compounds tested against Cyclin-dependent kinase 6 (Homo sapiens) (UniProt Q00534).
Chain of Cyclin-dependent kinase 6 (Homo sapiens) (Q00534 whole entry): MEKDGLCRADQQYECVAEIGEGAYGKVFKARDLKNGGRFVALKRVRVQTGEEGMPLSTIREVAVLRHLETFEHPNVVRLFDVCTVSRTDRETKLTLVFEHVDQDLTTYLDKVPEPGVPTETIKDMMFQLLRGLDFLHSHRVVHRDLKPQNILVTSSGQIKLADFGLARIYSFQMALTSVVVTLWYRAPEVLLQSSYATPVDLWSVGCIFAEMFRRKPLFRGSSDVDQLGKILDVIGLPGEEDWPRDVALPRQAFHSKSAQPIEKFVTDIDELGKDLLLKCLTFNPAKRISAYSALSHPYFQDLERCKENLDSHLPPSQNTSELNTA

Structure (SMILES)	ΔTm
N#CC(C#N)=Cc1ccc(O)c(O)c1 [TYRPHOSTIN 23]	0.2 °C
COc1ccc(CNc2nc(N(CCO)CCO)nc3c2ncn3C(C)C)cc1	-0.1 °C
O=S(=O)(c1cccc2c(Cl)cccc12)N1CCCNCC1	0.9 °C
CN(C)S(=O)(=O)c1ccc2c(c1)/C(=C/c1cc3c([nH]1)CCCC3)C(=O)N2	-0.9 °C

Each compound was assayed against T1, Serine/threonine-protein kinase PLK4 (Homo sapiens) (UniProt O00444).
T1 sequence (whole entry): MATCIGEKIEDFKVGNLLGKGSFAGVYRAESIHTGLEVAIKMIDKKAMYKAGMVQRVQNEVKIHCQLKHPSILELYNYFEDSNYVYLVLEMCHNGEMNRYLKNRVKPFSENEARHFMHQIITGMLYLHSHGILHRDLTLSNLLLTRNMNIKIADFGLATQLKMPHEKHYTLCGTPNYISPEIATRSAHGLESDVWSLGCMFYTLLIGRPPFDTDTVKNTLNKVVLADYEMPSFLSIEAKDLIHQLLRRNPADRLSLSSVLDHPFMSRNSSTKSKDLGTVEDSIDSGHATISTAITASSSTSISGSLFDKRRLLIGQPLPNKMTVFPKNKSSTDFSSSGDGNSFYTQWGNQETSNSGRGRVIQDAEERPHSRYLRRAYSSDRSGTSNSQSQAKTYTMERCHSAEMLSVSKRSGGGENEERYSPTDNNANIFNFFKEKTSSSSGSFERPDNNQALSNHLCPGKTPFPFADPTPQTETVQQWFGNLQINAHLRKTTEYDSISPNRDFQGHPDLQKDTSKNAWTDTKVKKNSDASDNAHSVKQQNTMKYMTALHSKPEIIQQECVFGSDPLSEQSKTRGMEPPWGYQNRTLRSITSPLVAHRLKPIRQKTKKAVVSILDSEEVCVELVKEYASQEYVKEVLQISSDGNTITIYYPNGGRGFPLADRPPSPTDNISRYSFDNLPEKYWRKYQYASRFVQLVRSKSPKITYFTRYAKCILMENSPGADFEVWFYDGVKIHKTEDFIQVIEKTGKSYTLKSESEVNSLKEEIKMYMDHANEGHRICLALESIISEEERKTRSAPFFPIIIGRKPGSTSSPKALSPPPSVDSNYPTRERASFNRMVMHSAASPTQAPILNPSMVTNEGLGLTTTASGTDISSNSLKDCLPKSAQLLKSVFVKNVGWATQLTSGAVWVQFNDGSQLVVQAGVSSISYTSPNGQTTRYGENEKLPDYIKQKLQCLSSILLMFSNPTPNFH

Structure (SMILES)	ΔTm
N#CC(C#N)=Cc1ccc(O)c(O)c1 [TYRPHOSTIN 23]	0.7 °C
COc1ccc(CNc2nc(N(CCO)CCO)nc3c2ncn3C(C)C)cc1	0.5 °C
O=S(=O)(c1cccc2c(Cl)cccc12)N1CCCNCC1	0.4 °C
CN(C)S(=O)(=O)c1ccc2c(c1)/C(=C/c1cc3c([nH]1)CCCC3)C(=O)N2	12.8 °C

The compounds below were run against Serine/threonine-protein kinase 26 (Homo sapiens) (UniProt Q9P289).
Chain of Serine/threonine-protein kinase 26 (Homo sapiens) (Q9P289 2-416 limits assumed): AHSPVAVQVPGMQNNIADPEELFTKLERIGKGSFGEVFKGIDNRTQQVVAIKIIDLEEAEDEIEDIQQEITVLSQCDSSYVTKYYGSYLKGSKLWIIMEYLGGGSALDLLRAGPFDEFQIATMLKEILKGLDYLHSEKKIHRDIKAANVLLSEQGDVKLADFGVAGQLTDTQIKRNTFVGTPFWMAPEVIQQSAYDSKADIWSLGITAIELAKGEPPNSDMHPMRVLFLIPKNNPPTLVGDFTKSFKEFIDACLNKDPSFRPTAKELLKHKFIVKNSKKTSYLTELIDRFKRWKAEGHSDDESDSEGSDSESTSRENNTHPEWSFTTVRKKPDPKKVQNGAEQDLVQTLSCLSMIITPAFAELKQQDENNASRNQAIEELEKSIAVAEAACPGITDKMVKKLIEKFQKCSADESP

Structure (SMILES)	ΔTm
N#CC(C#N)=Cc1ccc(O)c(O)c1 [TYRPHOSTIN 23]	0.1 °C
COc1ccc(CNc2nc(N(CCO)CCO)nc3c2ncn3C(C)C)cc1	1 °C
O=S(=O)(c1cccc2c(Cl)cccc12)N1CCCNCC1	-0.1 °C
CN(C)S(=O)(=O)c1ccc2c(c1)/C(=C/c1cc3c([nH]1)CCCC3)C(=O)N2	1 °C

These compounds were tested against Serine/threonine-protein kinase pim-1 (Homo sapiens) (UniProt P11309).
Chain of Serine/threonine-protein kinase pim-1 (Homo sapiens) (P11309 whole entry, looked up): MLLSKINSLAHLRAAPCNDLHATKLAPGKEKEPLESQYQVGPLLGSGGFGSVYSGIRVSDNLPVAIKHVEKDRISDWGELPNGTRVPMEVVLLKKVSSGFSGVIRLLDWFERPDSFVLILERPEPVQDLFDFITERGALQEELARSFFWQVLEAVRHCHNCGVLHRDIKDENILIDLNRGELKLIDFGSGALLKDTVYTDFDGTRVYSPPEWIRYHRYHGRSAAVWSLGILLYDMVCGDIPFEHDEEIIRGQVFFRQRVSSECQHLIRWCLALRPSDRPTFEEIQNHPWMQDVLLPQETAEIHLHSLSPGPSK

Structure (SMILES)	ΔTm
N#CC(C#N)=Cc1ccc(O)c(O)c1 [TYRPHOSTIN 23]	1.5 °C
COc1ccc(CNc2nc(N(CCO)CCO)nc3c2ncn3C(C)C)cc1	-1 °C
O=S(=O)(c1cccc2c(Cl)cccc12)N1CCCNCC1	2.7 °C
CN(C)S(=O)(=O)c1ccc2c(c1)/C(=C/c1cc3c([nH]1)CCCC3)C(=O)N2	0.5 °C

What follows are compounds tested against T2, Serine/threonine-protein kinase Nek2 (Homo sapiens) (UniProt P51955).
T2 sequence (whole entry): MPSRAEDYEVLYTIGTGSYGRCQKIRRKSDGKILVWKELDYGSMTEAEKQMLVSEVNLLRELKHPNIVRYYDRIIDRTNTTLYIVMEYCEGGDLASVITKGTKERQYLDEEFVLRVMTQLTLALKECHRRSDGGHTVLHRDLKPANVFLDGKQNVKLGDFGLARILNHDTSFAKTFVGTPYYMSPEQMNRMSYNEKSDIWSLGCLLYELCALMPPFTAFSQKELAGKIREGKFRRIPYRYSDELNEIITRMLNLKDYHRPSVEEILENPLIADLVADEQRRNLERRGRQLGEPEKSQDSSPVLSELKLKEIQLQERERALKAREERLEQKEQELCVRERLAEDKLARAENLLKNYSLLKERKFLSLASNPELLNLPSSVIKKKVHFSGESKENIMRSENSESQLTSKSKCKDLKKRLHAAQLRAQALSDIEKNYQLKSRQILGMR

Structure (SMILES)	ΔTm
N#CC(C#N)=Cc1ccc(O)c(O)c1 [TYRPHOSTIN 23]	1.2 °C
COc1ccc(CNc2nc(N(CCO)CCO)nc3c2ncn3C(C)C)cc1	1 °C
O=S(=O)(c1cccc2c(Cl)cccc12)N1CCCNCC1	0.9 °C
CN(C)S(=O)(=O)c1ccc2c(c1)/C(=C/c1cc3c([nH]1)CCCC3)C(=O)N2	2.8 °C

These compounds were tested against T3, 3-phosphoinositide-dependent protein kinase 1 (Homo sapiens) (UniProt O15530).
T3 sequence (whole entry): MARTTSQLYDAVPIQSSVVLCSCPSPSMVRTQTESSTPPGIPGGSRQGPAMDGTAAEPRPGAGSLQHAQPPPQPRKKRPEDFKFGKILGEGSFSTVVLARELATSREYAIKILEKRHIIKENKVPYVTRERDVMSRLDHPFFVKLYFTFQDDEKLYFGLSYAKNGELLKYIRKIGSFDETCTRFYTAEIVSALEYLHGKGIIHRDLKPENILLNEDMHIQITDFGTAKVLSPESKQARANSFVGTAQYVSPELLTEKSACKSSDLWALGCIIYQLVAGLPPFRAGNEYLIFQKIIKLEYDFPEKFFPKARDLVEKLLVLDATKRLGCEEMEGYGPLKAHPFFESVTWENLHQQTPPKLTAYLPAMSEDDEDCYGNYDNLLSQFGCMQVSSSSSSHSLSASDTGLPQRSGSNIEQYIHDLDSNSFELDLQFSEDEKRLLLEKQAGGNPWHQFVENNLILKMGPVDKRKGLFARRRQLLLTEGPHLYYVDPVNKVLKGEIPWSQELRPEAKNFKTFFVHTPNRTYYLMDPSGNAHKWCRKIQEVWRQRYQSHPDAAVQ

Structure (SMILES)	ΔTm
N#CC(C#N)=Cc1ccc(O)c(O)c1 [TYRPHOSTIN 23]	0.2 °C
COc1ccc(CNc2nc(N(CCO)CCO)nc3c2ncn3C(C)C)cc1	0 °C
O=S(=O)(c1cccc2c(Cl)cccc12)N1CCCNCC1	0.1 °C
CN(C)S(=O)(=O)c1ccc2c(c1)/C(=C/c1cc3c([nH]1)CCCC3)C(=O)N2	0.4 °C

What follows are compounds tested against STE20-like serine/threonine-protein kinase (Homo sapiens) (UniProt Q9H2G2).

Structure (SMILES)	ΔTm
N#CC(C#N)=Cc1ccc(O)c(O)c1 [TYRPHOSTIN 23]	0.6 °C
COc1ccc(CNc2nc(N(CCO)CCO)nc3c2ncn3C(C)C)cc1	0.3 °C
O=S(=O)(c1cccc2c(Cl)cccc12)N1CCCNCC1	-0.1 °C
CN(C)S(=O)(=O)c1ccc2c(c1)/C(=C/c1cc3c([nH]1)CCCC3)C(=O)N2	6.2 °C

These compounds were tested against Serine/threonine-protein kinase Chk2 (Homo sapiens, UniProt O96017).
Chain of Serine/threonine-protein kinase Chk2 (O96017 whole entry): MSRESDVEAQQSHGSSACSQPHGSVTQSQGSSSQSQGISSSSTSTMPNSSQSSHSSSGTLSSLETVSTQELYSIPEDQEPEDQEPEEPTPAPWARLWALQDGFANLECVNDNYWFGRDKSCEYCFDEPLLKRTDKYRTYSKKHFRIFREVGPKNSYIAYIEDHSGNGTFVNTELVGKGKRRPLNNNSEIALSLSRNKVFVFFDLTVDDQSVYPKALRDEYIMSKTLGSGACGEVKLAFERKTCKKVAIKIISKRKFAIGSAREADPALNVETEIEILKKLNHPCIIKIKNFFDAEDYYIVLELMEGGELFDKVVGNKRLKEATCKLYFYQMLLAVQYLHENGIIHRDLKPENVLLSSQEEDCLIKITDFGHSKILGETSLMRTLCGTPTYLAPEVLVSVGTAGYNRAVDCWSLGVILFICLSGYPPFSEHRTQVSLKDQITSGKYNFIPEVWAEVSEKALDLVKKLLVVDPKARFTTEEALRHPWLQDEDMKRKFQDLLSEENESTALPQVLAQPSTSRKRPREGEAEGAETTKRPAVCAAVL

Structure (SMILES)	ΔTm
N#CC(C#N)=Cc1ccc(O)c(O)c1 [TYRPHOSTIN 23]	0.7 °C
COc1ccc(CNc2nc(N(CCO)CCO)nc3c2ncn3C(C)C)cc1	0.9 °C
O=S(=O)(c1cccc2c(Cl)cccc12)N1CCCNCC1	-0.1 °C
CN(C)S(=O)(=O)c1ccc2c(c1)/C(=C/c1cc3c([nH]1)CCCC3)C(=O)N2	4.7 °C
